Laboratory results from ChEMBL document CHEMBL4393707, “Synthesis and evaluation of new quinazolin-4(3H)-one derivatives as potent antibacterial agents against multidrug resistant Staphylococcus aureus and Mycobacterium tuberculosis” (Eur J Med Chem, 2019).
Converted amounts (≈) assume the structure as drawn.

How the values were obtained:
Staphylococcus aureus [1] = assay: Synergistic antibacterial activity against Staphylococcus aureus ATCC 29213 assessed as sum of FIC for test compound in presence of gentamycin and FIC for gentamycin in presence of test compound incubated for 24 hrs by checkerboard titration assay; format: functional
Staphylococcus aureus [2] = assay: Synergistic antibacterial activity against Staphylococcus aureus ATCC 29213 assessed as sum of FIC for test compound in presence of minocycline and FIC for minocycline in presence of test compound incubated for 24 hrs by checkerboard titration assay; format: functional
Staphylococcus aureus [3] = assay: Antibacterial activity against methicillin-resistant Staphylococcus aureus NR10129 incubated for 16 to 18 hrs by broth microdilution assay; format: functional
Staphylococcus aureus [4] = assay: Synergistic antibacterial activity against Staphylococcus aureus ATCC 29213 assessed as sum of FIC for test compound in presence of ceftazidime and FIC for ceftazidime in presence of test compound incubated for 24 hrs by checkerboard titration assay; format: functional
Staphylococcus aureus [5] = assay: Antibacterial activity against methicillin-resistant Staphylococcus aureus NR10193 incubated for 16 to 18 hrs by broth microdilution assay; format: functional
Acinetobacter baumannii = assay: Antibacterial activity against Acinetobacter baumannii BAA1605 incubated for 16 to 18 hrs by broth microdilution assay; format: functional
Staphylococcus aureus [6] = assay: Synergistic antibacterial activity against Staphylococcus aureus ATCC 29213 assessed as sum of FIC for test compound in presence of vancomycin and FIC for vancomycin in presence of test compound incubated for 24 hrs by checkerboard titration assay; format: functional
Staphylococcus aureus [7] = assay: Potentiation of levofloxacin-induced antibacterial activity against Staphylococcus aureus ATCC 29213 assessed as FIC incubated for 24 hrs by checkerboard titration assay; format: functional
Staphylococcus aureus [8] = assay: Potentiation of gentamycin-induced antibacterial activity against Staphylococcus aureus ATCC 29213 assessed as gentamycin MIC incubated for 24 hrs by checkerboard titration assay (reference value: 0.25 ug/ml); format: functional; conditions: ATCC 29213, 24 h
Staphylococcus aureus [9] = assay: Potentiation of ceftazidime-induced antibacterial activity against Staphylococcus aureus ATCC 29213 assessed as ceftazidime MIC incubated for 24 hrs by checkerboard titration assay (reference value: […] ug/ml); format: functional; conditions: ATCC 29213, 24 h
[10] = Cytotoxicity against African green monkey Vero cells assessed as reduction in cell viability after 72 hrs by MTT assay; format: cell-based; conditions: chlorocebus sabaeus
Staphylococcus aureus [11] = assay: Synergistic antibacterial activity against Staphylococcus aureus ATCC 29213 incubated for 24 hrs in presence of meropenem by checkerboard titration assay; format: functional; conditions: ATCC 29213, 24 h
Staphylococcus aureus [12] = assay: Potentiation of vancomycin-induced antibacterial activity against Staphylococcus aureus ATCC 29213 assessed as vancomycin MIC incubated for 24 hrs by checkerboard titration assay (reference value: 1 ug/ml); format: functional; conditions: ATCC 29213, 24 h
Staphylococcus aureus [13] = assay: Antibacterial activity against vancomycin-resistant Staphylococcus aureus VRS4 incubated for 16 to 18 hrs by broth microdilution assay; format: functional
Staphylococcus aureus [14] = assay: Potentiation of levofloxacin-induced antibacterial activity against Staphylococcus aureus ATCC 29213 assessed as levofloxacin MIC incubated for 24 hrs by checkerboard titration assay (reference value: 0.25 ug/ml); format: functional; conditions: ATCC 29213, 24 h
Staphylococcus aureus [15] = assay: Synergistic antibacterial activity against Staphylococcus aureus ATCC 29213 assessed as FIC incubated for 24 hrs in presence of linezolid by checkerboard titration assay; format: functional
Staphylococcus aureus [16] = assay: Potentiation of daptomycin-induced antibacterial activity against Staphylococcus aureus ATCC 29213 assessed as daptomycin MIC incubated for 24 hrs by checkerboard titration assay (reference value: 0.5 ug/ml); format: functional; conditions: ATCC 29213, 24 h
Pseudomonas aeruginosa = assay: Antibacterial activity against Pseudomonas aeruginosa ATCC 27853 incubated for 16 to 18 hrs by broth microdilution assay; format: functional
Staphylococcus aureus [17] = assay: Potentiation of meropenem-induced antibacterial activity against Staphylococcus aureus ATCC 29213 assessed as meropenem MIC incubated for 24 hrs by checkerboard titration assay (reference value: 0.25 ug/ml); format: functional; conditions: ATCC 29213, 24 h
Staphylococcus aureus [18] = assay: Synergistic antibacterial activity against Staphylococcus aureus ATCC 29213 assessed as FIC incubated for 24 hrs in presence of levofloxacin by checkerboard titration assay; format: functional
Staphylococcus aureus [19] = assay: Antibacterial activity against methicillin-resistant Staphylococcus aureus NR10198 incubated for 16 to 18 hrs by broth microdilution assay; format: functional
Staphylococcus aureus [20] = assay: Synergistic antibacterial activity against Staphylococcus aureus ATCC 29213 assessed as sum of FIC for test compound in presence of levofloxacin and FIC for levofloxacin in presence of test compound incubated for 24 hrs by checkerboard titration assay; format: functional
Staphylococcus aureus [21] = assay: Synergistic antibacterial activity against Staphylococcus aureus ATCC 29213 assessed as sum of FIC for test compound in presence of daptomycin and FIC for daptomycin in presence of test compound incubated for 24 hrs by checkerboard titration assay; format: functional
Staphylococcus aureus [22] = assay: Synergistic antibacterial activity against Staphylococcus aureus ATCC 29213 incubated for 24 hrs in presence of daptomycin by checkerboard titration assay; format: functional; conditions: ATCC 29213, 24 h
Staphylococcus aureus [23] = assay: Antibacterial activity against vancomycin-resistant Staphylococcus aureus VRS12 incubated for 16 to 18 hrs by broth microdilution assay; format: functional
Staphylococcus aureus [24] = assay: Synergistic antibacterial activity against Staphylococcus aureus ATCC 29213 assessed as FIC incubated for 24 hrs in presence of rifampicin by checkerboard titration assay; format: functional
Staphylococcus aureus [25] = assay: Potentiation of minocycline-induced antibacterial activity against Staphylococcus aureus ATCC 29213 assessed as minocycline MIC incubated for 24 hrs by checkerboard titration assay (reference value: 0.125 ug/ml); format: functional; conditions: ATCC 29213, 24 h
Staphylococcus aureus [26] = assay: Synergistic antibacterial activity against Staphylococcus aureus ATCC 29213 incubated for 24 hrs in presence of gentamycin by checkerboard titration assay; format: functional; conditions: ATCC 29213, 24 h
Staphylococcus aureus [27] = assay: Antibacterial activity against vancomycin-resistant Staphylococcus aureus VRS1 incubated for 16 to 18 hrs by broth microdilution assay; format: functional
Staphylococcus aureus [28] = assay: Synergistic antibacterial activity against Staphylococcus aureus ATCC 29213 incubated for 24 hrs in presence of ceftazidime by checkerboard titration assay; format: functional; conditions: ATCC 29213, 24 h
Klebsiella pneumoniae = assay: Antibacterial activity against Klebsiella pneumoniae ATCC BAA-1705 incubated for 16 to 18 hrs by broth microdilution assay; format: functional
Staphylococcus aureus [29] = assay: Potentiation of linezolid-induced antibacterial activity against Staphylococcus aureus ATCC 29213 assessed as FIC incubated for 24 hrs by checkerboard titration assay; format: functional
Staphylococcus aureus [30] = assay: Antibacterial activity against methicillin-resistant Staphylococcus aureus NR10194 incubated for 16 to 18 hrs by broth microdilution assay; format: functional
Staphylococcus aureus [31] = assay: Synergistic antibacterial activity against Staphylococcus aureus ATCC 29213 assessed as FIC incubated for 24 hrs in presence of gentamycin by checkerboard titration assay; format: functional
Staphylococcus aureus [32] = assay: Synergistic antibacterial activity against Staphylococcus aureus ATCC 29213 incubated for 24 hrs in presence of rifampicin by checkerboard titration assay; format: functional; conditions: ATCC 29213, 24 h
Staphylococcus aureus [33] = assay: Antibacterial activity against methicillin-resistant Staphylococcus aureus NR100 incubated for 16 to 18 hrs by broth microdilution assay; format: functional
Staphylococcus aureus [34] = assay: Potentiation of ceftazidime-induced antibacterial activity against Staphylococcus aureus ATCC 29213 assessed as FIC incubated for 24 hrs by checkerboard titration assay; format: functional
[35] = tested on: Mycobacterium tuberculosis; assay: Antitubercular activity against Mycobacterium tuberculosis H37Rv after 7 days by resazurin dye based assay; format: functional; conditions: 168 h
Staphylococcus aureus [36] = assay: Potentiation of linezolid-induced antibacterial activity against Staphylococcus aureus ATCC 29213 assessed as linezolid MIC incubated for 24 hrs by checkerboard titration assay (reference value: 2 ug/ml); format: functional; conditions: ATCC 29213, 24 h
Staphylococcus aureus [37] = assay: Synergistic antibacterial activity against Staphylococcus aureus ATCC 29213 incubated for 24 hrs in presence of vancomycin by checkerboard titration assay; format: functional; conditions: ATCC 29213, 24 h

N#Cc1ccc(/C=C/c2nc3ccccc3c(=O)n2-c2ccc(C(=O)O)c(O)c2)cc1
FIC (Staphylococcus aureus [1]): 0.04 | FIC (Staphylococcus aureus [2]): 0.039 | MIC (Staphylococcus aureus [3]): < 125 ng/mL | FIC (Staphylococcus aureus [4]): 0.034 | MIC (Staphylococcus aureus [5]): < 125 ng/mL | MIC (Acinetobacter baumannii): > 64000 ng/mL | FIC (Staphylococcus aureus [6]): 0.036 | FIC (Staphylococcus aureus [7]): 0.003 | MIC (Staphylococcus aureus [8]): 1.9 ng/mL | MIC (Staphylococcus aureus [9]): 31.2 ng/mL | CC50 at 72 h [10]: > 5000 ng/mL | MIC (Staphylococcus aureus [11]): 1.9 ng/mL | MIC (Staphylococcus aureus [12]): 3.9 ng/mL | MIC (Staphylococcus aureus [13]): 125 ng/mL (≈ 0.305 µM) | MIC (Staphylococcus aureus [14]): 0.9 ng/mL | FIC (Staphylococcus aureus [15]): 0.032 | MIC (Staphylococcus aureus [16]): 1.9 ng/mL | MIC (Pseudomonas aeruginosa): > 64000 ng/mL | MIC (Staphylococcus aureus [17]): 0.9 ng/mL | FIC (Staphylococcus aureus [18]): 0.032 | MIC (Staphylococcus aureus [19]): < 125 ng/mL | FIC (Staphylococcus aureus [20]): 0.036 | FIC (Staphylococcus aureus [21]): 0.036 | MIC (Staphylococcus aureus [22]): 1.9 ng/mL | MIC (Staphylococcus aureus [23]): 125 ng/mL (≈ 0.305 µM) | FIC (Staphylococcus aureus [24]): 0.032 | MIC (Staphylococcus aureus [25]): 0.9 ng/mL | MIC (Staphylococcus aureus [26]): 1.9 ng/mL | MIC (Staphylococcus aureus [27]): 125 to 250 ng/mL (≈ 0.305 to 0.611 µM) | MIC (Staphylococcus aureus [28]): 1.9 ng/mL | MIC (Klebsiella pneumoniae): > 64000 ng/mL | FIC (Staphylococcus aureus [29]): 0.003 | MIC (Staphylococcus aureus [30]): < 125 ng/mL | FIC (Staphylococcus aureus [31]): 0.032 | MIC (Staphylococcus aureus [32]): 1.9 ng/mL | MIC (Staphylococcus aureus [33]): 125 to 250 ng/mL (≈ 0.305 to 0.611 µM) | FIC (Staphylococcus aureus [34]): 0.0019 | MIC [35]: 64000 ng/mL (≈ 156 µM) | MIC (Staphylococcus aureus [36]): 7.5 ng/mL | MIC (Staphylococcus aureus [37]): 1.9 ng/mL

N#Cc1ccc(/C=C/c2nc3cccc(F)c3c(=O)n2-c2cccc(O)c2)cc1
FIC (Staphylococcus aureus [1]): 0.0703 | FIC (Staphylococcus aureus [2]): 0.0697 | MIC (Staphylococcus aureus [3]): < 125 ng/mL | FIC (Staphylococcus aureus [4]): 0.0664 | MIC (Staphylococcus aureus [5]): < 125 ng/mL | MIC (Acinetobacter baumannii): > 64000 ng/mL | FIC (Staphylococcus aureus [6]): 0.0664 | FIC (Staphylococcus aureus [7]): 0.0036 | MIC (Staphylococcus aureus [8]): 1.9 ng/mL | MIC (Staphylococcus aureus [9]): 31.2 ng/mL | CC50 at 72 h [10]: 5000 to 100000 ng/mL (≈ 13 to 261 µM) | MIC (Staphylococcus aureus [11]): 7.8 ng/mL | MIC (Staphylococcus aureus [12]): 3.9 ng/mL | MIC (Staphylococcus aureus [13]): 125 ng/mL (≈ 0.326 µM) | MIC (Staphylococcus aureus [14]): 0.9 ng/mL | FIC (Staphylococcus aureus [15]): 0.0625 | MIC (Staphylococcus aureus [16]): 1.9 ng/mL | MIC (Pseudomonas aeruginosa): > 64000 ng/mL | MIC (Staphylococcus aureus [17]): 0.9 ng/mL | FIC (Staphylococcus aureus [18]): 0.0625 | MIC (Staphylococcus aureus [19]): < 125 ng/mL | FIC (Staphylococcus aureus [20]): 0.0661 | FIC (Staphylococcus aureus [21]): 0.0644 | MIC (Staphylococcus aureus [22]): 7.8 ng/mL | MIC (Staphylococcus aureus [23]): 125 ng/mL (≈ 0.326 µM) | FIC (Staphylococcus aureus [24]): 0.0625 | MIC (Staphylococcus aureus [25]): 0.9 ng/mL | MIC (Staphylococcus aureus [26]): 7.8 ng/mL | MIC (Staphylococcus aureus [27]): 250 ng/mL (≈ 0.652 µM) | MIC (Staphylococcus aureus [28]): 7.8 ng/mL | MIC (Klebsiella pneumoniae): > 64000 ng/mL | FIC (Staphylococcus aureus [29]): 0.0037 | MIC (Staphylococcus aureus [30]): 125 to 250 ng/mL (≈ 0.326 to 0.652 µM) | FIC (Staphylococcus aureus [31]): 0.0625 | MIC (Staphylococcus aureus [32]): 7.8 ng/mL | MIC (Staphylococcus aureus [33]): 500 ng/mL (≈ 1.3 µM) | FIC (Staphylococcus aureus [34]): 0.0039 | MIC [35]: 8000 ng/mL (≈ 20.9 µM) | MIC (Staphylococcus aureus [36]): 7.5 ng/mL | MIC (Staphylococcus aureus [37]): 7.8 ng/mL
